{"source": "patent US9808426B2", "about": "“Ternary mixture formulations” (priority 2011, dated 2017)", "key": {"[1]": {"assay": "In vivo pharmacokinetic analysis after oral administration to jugular vein-cannulated rats", "conditions": "fenofibrate 145 mg/70 kg, plasma fenofibric acid", "procedure": "The study was performed on jugular vein-cannulated rats weighing from 200 to 250 gm (n=4). […] Blood samples were collected at various time intervals over a 48 hour period after administration. The samples were collected into heparinized tubes through the jugular vein cannulation, centrifuged at 5000 rpm for 5 minutes. Each 50 μl plasma sample was treated with 10 μl of 50% methanol and 10 μl of an internal standard (Indomethacin), and then mixed by vortexing for 30 seconds. To that mixture, 200 μl of acetonitrile was added, followed by one minute of vortexing, centrifugation at 14,000 rpm for five minutes. […] Indomethacin was used as an internal standard for the LCMS analyis. Standard non-compartmental pharmacokinetic parameters were calculated. Briefly, noncompartmental pharmacokinetic analysis is dependent on estimation of total drug exposure. Total drug exposure is most often estimated by area under the curve (AUC) using the trapezoidal rule (numerical integration) method. Due to the dependence on the length of ‘x’ in the trapezoidal rule, the area estimation is dependent on the blood/plasma sampling schedule. That is, the closer time points are, the closer the trapezoids reflect the actual shape of the concentration-time curve."}, "[2]": {"assay": "In vitro dissolution, USP Type II apparatus, simulated gastric fluid pH 1.2 without enzymes", "format": "physicochemical", "conditions": "itraconazole 100 mg, 900 ml simulated gastric fluid pH 1.2, 100 rpm, 37°C", "procedure": "The dissolution profile of pure itraconazole was compared to the dissolution profile itraconazole from the free-flowing powder formulation that was made by the process described in Example 3. The amount of free flowing powder formulation used in the dissolution studies was equivalent to amount of the formulation containing 100 mg of itraconazole. The amount of pure itraconazole used as a control in the studies was also 100 mg. […] The analysis was performed using a USP Type II dissolution apparatus with the paddle speed and temperature maintained at 100 rpm and 37±0.5° C. Three ml aliquots were removed at 10, 20, 30, 45 and 60 minute intervals. Subsequently, the amount of itraconazole in each of the aliquots was determined by using an HP Agilent® 1100 series HPLC system (Agilent Technologies, Inc., Santa Clara, Calif.). The mobile phase solution used in the HPLC system consisted of 65% acetonitrile and 35% 10 mM potassium dihydrogen phosphate. The solution was pumped through a Phenomenex® Luna 5 μm C-18 (dimension: 150 mm×4.6 mm) column (Phenomenex Corp., Torrance Calif.) at a flow rate of 1.3 ml/min. Itraconazole was detected at a wavelength of 263 nm. […] Subsequently, the amount of itraconazole in each of the aliquots was determined by using an HP Agilent® 1100 series HPLC system (Agilent Technologies, Inc., Santa Clara, Calif.). […] Itraconazole was detected at a wavelength of 263 nm. […]"}}, "data": [{"smiles": "CCC(C)n1ncn(-c2ccc(N3CCN(c4ccc(OCC5COC(Cn6cncn6)(c6ccc(Cl)cc6Cl)O5)cc4)CC3)cc2)c1=O", "note": "(centres unmarked) [pure drug, itraconazole]", "values": [{"measurement": "AUMC0-t", "setting": "[1]", "value": 436.7, "unit": "µg·h/mL"}, {"measurement": "CL", "setting": "[1]", "value": 0.07, "unit": "L/h"}, {"measurement": "Cmax", "setting": "[1]", "value": 7200, "unit": "ng/mL"}, {"measurement": "MRT (mean residence time)", "setting": "[1]", "value": 9.15, "unit": "h"}, {"measurement": "t1/2", "setting": "[1]", "value": 7.18, "unit": "h"}, {"measurement": "tmax", "setting": "[1]", "value": 2.5, "unit": "h"}, {"measurement": "AUC0-t (AUC0-48)", "setting": "[1]; over 48 hours", "value": 51, "unit": "µg·h/mL"}, {"measurement": "drug release in 10 min", "setting": "[2]", "value": "less than 1%"}]}]}
